Experimental data published in patent US20100144854A1 (priority 2007, published 2010).

What was measured:
Assay type in all cases: in vivo, human
[1] = tested on: Malignant glioblastoma of the left brain; assay: Example 4: patient with recurrent brain glioblastoma treated with rhodamine 6G intravenously
Description: Patient G. Diagnosis: Malignant glioblastoma of the left brain. Recurrence of cancer. Two years previously a tumor had been removed in connection with a brain glioblastoma. The patient complained of headaches, nausea and vomiting. […] Patient's condition moderately severe; pale skin. […] The procedure took 40 minutes. Subsequent procedures were carried out in exactly the same sequence twice a week. The course of treatment lasted 3 months. During the treatment the tumor reduced in size to 0.3×0.4 cm. After two infusions of the preparation the symptoms of nausea and pain had decreased. The preparation was administered over 6 months as a single dose once every 2 weeks.

[2] = tested on: primary generalized amyloidosis; assay: Example 10: patient with primary generalized amyloidosis treated with rhodamine 6G; conditions: Patient T, 67
Description: Patient T. Diagnosis: Ischemic heart disease: Atherosclerosis, cardiosclerosis, atrial fibrillation. Amyloidosis? On account of deterioration in the patient's condition (increased frequency of dyspnea) the patient was hospitalised. On admission the patient's overall condition was fairly serious. Skin and visible mucous membranes normal colour, moderately cyanosed lips. Heart sounds—muffled, arrhythmia—atrial fibrillation with frequency of ventricular contractions 110 beats/min (pulse deficiency 12), blood pressure 100/60 mm Hg. In left lung, dull percussion sound below the middle of the shoulder blade; no breathing detected above this region. Individual moist rales heard to the right in the projection of the lower lobe. Diseased liver, lower edge extending 4 cm below the level of the costal margin. Edema of the legs as far as middle third of femur and anasarca were diagnosed.
Low voltage waves recorded on ECG, taxistological shape of atrial fibrillation, QS in leads V1-V4. […] Disturbed diastolic relaxation of myocardium of left ventricle was noted. […] In the biochemical blood analysis the level of total protein was reduced (down to 50 g/l), while the levels of urea (to 9.66 mmol/l) and creatinine (to […]) were both raised. […] Ultrasound investigation of organs of the abdominal cavity: enlarged liver (right lobe—16.9 cm), echogenicity reduced, and irregular structure; portal vein−15 mm. Gall bladder: 52×22 mm, wall up to 4 mm, unobstructed lumen. Pancreas: uniform, echogenicity raised, focalized diffuse changes. […] Calyculate-pelvic system of both kidneys not enlarged. Fogging of the lung pattern and diffuse changes were observed on an anterioposterior chest X-ray. A needle liver biopsy was performed in order to exclude amyloidosis. Signs of primary amyloidosis were detected. […] 5% suppositories in the rectum at night. Treatment according to this regimen was continued for 2 months. […] Intravenous administration twice a week. The course of treatment lasted 2 months. […] The liver and kidneys were normal size on an ultrasound scan.

[3] = tested on: adenocarcinoma of the right ovary; assay: Example 3: patient with ovarian adenocarcinoma treated with rhodamine 6G; conditions: Patient T, 54
Description: Patient T. Diagnosis: adenocarcinoma of the right ovary. Metastases in the liver. A hysterectomy had been carried out 4 years before. There was a recurrence of the cancer after a year. The patient complained of pain in the pelvis and difficulty in urination. […] The patient's condition was moderately severe; pale skin. […] The course of treatment lasted 3 months. During the treatment the tumor decreased in size to 1.2×0.9×0.3 cm. […] Blood analyses against the treatment background became normal over 2 months. A full course of treatment with the preparation was carried out over 6 months. During the course of the treatment the tumor in the region of the bladder and rectum disappeared.

renal cell carcinoma = assay: Example 2: patient with renal cell carcinoma and lung formations treated with rhodamine 6G; conditions: Patient L, 43
Description: Three years previously the left kidney was removed and prophylactic chemotherapy was carried out to treat renal cell carcinoma. […] Severe dyspnea, diagnosis adynamia. Treatment was prescribed, including the use of a medicinal preparation having an anti-tumor action. […] After 4 weeks the dyspnea and pain had decreased. Blood analyses against the treatment background normalised over 3 months. A repeat course of treatment with the preparation was then prescribed, which was administered rectally in the form of a 1% suppository and also by inhalation for 6 months. Over the course of the treatment the tumor in the right kidney and the metastases in the lungs disappeared.

[4] = tested on: Adenocarcinoma of the prostate; assay: Example 7: patient with prostate adenocarcinoma treated with rhodamine 6G; conditions: Patient Sh., 55
Description: The patient presented complaining of a sharp pain when urinating and of retention and reddish color of the urine. On examination: Ultrasound scan—prostate approximately 85 cm^3, tumor with irregular contours, 34×40 mm^2 in size. PSA-49.9 […].
Needle biopsy—adenocarcinoma of the prostate.
Diagnosis: Adenocarcinoma of the prostate. The patient refused surgical intervention and chemotherapy.
At night a suppository containing 2% of the preparation was administered.

Substance: 9-(2-ethoxycarbonyl)phenyl)-3,6-bis(ethylamino)2,7-dimethylxanthyl chloride [rhodamine 6G]
- tumor on CT scan ([1]; after 9 months' treatment): no tumor could be detected
- symptoms of nausea and pain ([1]; after two infusions): decreased
- condition of the patient ([2]; 5 g in 250 ml water three times a day, 5% suppositories, 2 months): gradually improved
- size of the heart, echocardiogram ([2]; after oral/rectal 2 months and 2 g i.v. twice a week 2 months): reduced
- blood and urine analyses ([2]; after treatment): in the normal range
- dilation of the left and right atria, echocardiogram ([2]; after treatment): significantly reduced
- fibrillation on the EKG ([2]; after treatment): no fibrillation
- liver and kidneys, ultrasound scan ([2]; after treatment): normal size
- patient's complaints ([2]; after treatment): no complaints
- voltage waves on the EKG ([2]; after treatment): in the normal range
- body weight ([3]; after treatment): regained weight
- tumor in the region of the bladder and rectum ([3]; full course over 6 months): disappeared
- blood analyses against the treatment background ([3]; over 2 months): became normal
- stools and feeling of pain ([3]; second week after start): the stools became normal and the feeling of pain disappeared
- dyspnea and pain (renal cell carcinoma; after 4 weeks, 12 drops 1% solution oral three times a day and microenema): decreased
- body weight (renal cell carcinoma; after treatment): regained weight
- blood analyses against the treatment background (renal cell carcinoma; over 3 months): normalised
- tumor in the kidney and metastases in the lungs (renal cell carcinoma; over the course of treatment, before: mass 3.5×5.4×3.7 cm, four lung formations 2.0-2.3 cm): disappeared
- pain experienced on urination ([4]; 40 days powder oral and 2% suppository): decreased in intensity
- decrease of size of the prostate, ultrasound ([4]; after 40 days, before approximately 85 cm^3): 40%
- recurrence of the cancer ([4]; over 2 years): No recurrence
- prostate size, ultrasound ([4]; subsequent examination after further 2 weeks oral and enemas): approximately 35 cm^3
- PSA ([4]; subsequent examination, before 49.9 ng/mL): 1 ng/mL
